The source of these data is patent US20260151367A1, “KIT TO PROMOTE DEVELOPMENTAL MYELINATION” (SOCIÉTÉ DES PRODUITS NESTLÉ S.A., priority 2022, published 2026).

The subject of assay [1] is myelin water fraction (MWF). In words: Linear model of myelin versus nutrient intake, all ages included. The class given is in vivo, human. To be noted: for association with myelin levels in age-adjusted models across age windows: all ages, linear model; for nutIntake*logAge estimate / nutIntake estimate: linear model across ages, Box Cox transformed MWF; for nutIntake*logAge estimate: coefficient of the intake x log age interaction term; for nutIntake estimate: coefficient of the nutrient intake term. The method, then:
The inventors have investigated the developmental dynamics of nutrient-myelin interactions from infancy to early childhood, using myelin imaging as a marker for brain maturation. Brain neuroimaging and infant nutritional intake information were analyzed from 293 children from a longitudinal cohort study in the US. A sliding window approach was used to investigate the relationship between the nutrient intake and brain region myelination over a continuous set of age windows.
For inclusion in the analysis of the present study, 293 children between 6 months and 60 months of age were selected who met the following criteria: 1. Singleton full-term (>37 weeks) pregnancy; 2. Uncomplicated pregnancy (i.e., no reports of pre-eclampsia, gestational hypertension or gestation diabetes mellitus, GDM); 3. No reports of abnormalities on fetal ultrasound; 4. Infant 5 minute APGAR scores ≥8; 5. Infant birth weight greater than 1500 g; 6. No reported history of neurological trauma in the child; 7. No reported sibling or parental psychiatric history, including autism; and 8. No reports of major depressive disorder requiring medication in the mother during pregnancy or in the 6 months prior to becoming pregnant. In addition, children had to have a successful MRI scan and time-matched nutrition intake information for at least one 24-hour period within a week of the MRI.
From the acquired mcDESPOT data, the myelin water fraction (MWF) was calculated using a processing pipeline that includes linear alignment of the SPGR, IR-SPGR, and bSSFP images to account for subtle intra-scan head movement, non-parenchyma voxel removal, and correction of flip angle errors and off-resonance inhomogeneities using DESPOT1-HIFI and DESPOT2-FM. A 3-pool tissue model was fit to the multi-angle SPGR and bSSFP data to estimate the MWF, a surrogate and non-invasive measure of myelin content. The MWF images (maps) were then non-linearly aligned to a common analysis space in approximate MNI space using a previously described multi-step approach that first aligns the subject's high flip angle T1 weighted SPGR image to one of 14 age-specific templates and then to an overall study-specific template using non-linear 3D deformation, ANTS. The calculated transformation matrices are then applied to the quantitative MWF maps.
Nutrient intake data was collected through the Automated Self-Administered 24-hour dietary assessment tool (ASA-24). The average daily nutrient intake per scan age was calculated, resulting in 293 observations with 88 nutrients. Values for amino acids and phospholipids, including sphingomyelin, were retrieved from the relevant United States Department of Agriculture (USDA) databases. The USDA choline database contains the values of free choline, glycerophosphocholine, phosphocholine, phosphatidylcholine and sphingomyelin for about 630 foods. […] The oligosaccharides 3′SL and 6′SL are only found in milk products, values of 114 and 23 mg/100 g were used for their respective concentrations in cow's milk. For the estimation of oligofructose, the inventors based their calculations on Moshfegh et al. J. Nutr. 1999; 129(7 Suppl): 1407s-11s. We then mapped the foods reported in ASA-24 to the corresponding items in the USDA database and calculated the daily totals.
(§1) A linear model, like, was fitted to the dataset, all ages included, for each nutrient. Linear models with significant and positive coefficients for the nutrient intake terms were considered as indicative of a linear positive correlation with myelin. The myelin water fraction was Box Cox transformed to make it more symmetric. In addition, to account for possibly non-linear associations and for correlations between the nutrients, we performed a regression model using a random forest and used a feature selection algorithm for finding all relevant variables.

Assay [2] has as its system myelin water fraction (MWF). In words: Random forest regression with feature selection for nutrients across ages. Conditions: listed in order of average importance after log Age. The class given is in vivo, human.
Source text: as §1
FIG. 2 compares the values of the transformed MWF with the values predicted by the random forest, on a test set.

Another assay deals with myelination. To be noted: potentially via a reduction in sialylated binding targets for the myelin associated glycoprotein; cited from earlier work.

`CC(=O)N[C@H]1[C@H]([C@H](O)[C@H](O)CO)O[C@@](O[C@H]2[C@@H](O)[C@@H](CO)O[C@@H](O[C@H]3[C@H](O)[C@@H](O)C(O)O[C@@H]3CO)[C@@H]2O)(C(=O)O)C[C@@H]1O` (stereo partly shown) [3′SL, 3′-sialyllactose]: in assay [1], the “association with myelin levels in age-adjusted models across age windows” value (from here on “association with myelin levels”) is recorded as “linked with higher myelin levels”, the “nutIntake*logAge estimate” value is 0.000 and the nutIntake estimate was 0.002. Besides, the “variables selected by the random forest model, sorted by average importance” value (“variables selected” below) in assay [2] is reported as “selected by the random forest model”. Turning to `CC(=O)N[C@H]1[C@H]([C@H](O)[C@H](O)CO)O[C@@](OC[C@H]2O[C@@H](O[C@H]3[C@H](O)[C@@H](O)[C@H](O)O[C@@H]3CO)[C@H](O)[C@@H](O)[C@H]2O)(C(=O)O)C[C@@H]1O` [6′SL, 6′-sialyllactose], the “impact on myelination in a preclinical study” value in the assay on myelination is “impact myelination”. In addition, in assay [1], the “association with myelin levels” value was “linked with higher myelin levels”, the “nutIntake*logAge estimate” value is −0.001 and the nutIntake estimate was 0.009.

`[Ca+2]` [Calcium]: the “variables selected” value in assay [2] is “selected by the random forest model”. On the same count and under the same terms, the result for `CC1=C(/C=C/C(C)=C/C=C/C(C)=C/C=C/C=C(C)/C=C/C=C(C)/C=C/C2=C(C)CCCC2(C)C)C(C)(C)CCC1` [Carotene, beta] reads “selected by the random forest model”. As to `CC[C@H](C)[C@H](N)C(=O)O` [Isoleucine], the “variables selected” value in assay [2] was “selected by the random forest model”. Take `NCCCC[C@H](N)C(=O)O` [Lysine]: in assay [1], the “association with myelin levels” value is “linked with higher myelin levels”, the “nutIntake*logAge estimate” value is on record as −0.005 and the nutIntake estimate is 0.033. `CSCC[C@H](N)C(=O)O` [Methionine]: the “variables selected” value in assay [2] was “selected by the random forest model”. Same read-out and setting: with `[P]` [Phosphorus] the entry was “selected by the random forest model”. Still for that read-out and setting: the result for `N[C@@H](CO)C(=O)O` [Serine] reads “selected by the random forest model”; that for “Octadecadienoic acid [Octadecadienoic (Linoleic, 18:2)]”, “selected by the random forest model”. Same read-out and setting: the result for Phosphatidylcholine reads “selected by the random forest model”. On to Phosphatidylinositol, for which, in assay [2], the “variables selected” value is on record as “selected by the random forest model”. The same measure, in the same setting: the result for Phosphatidylserine reads “selected by the random forest model”; that for Sphingomyelin, “selected by the random forest model”.

B1: α-lactalbumin: whey protein of 123 amino acids and 4 disulfide bridges, molecular weight 14.2K Daltons (protein, UniProt P00711 20-142, looked up)
Alpha-lactalbumin: EQLTKCEVFRELKDLKGYGGVSLPEWVCTTFHTSGYDTQAIVQNNDSTEYGLFQINNKIWCKDDQNPHSSNICNISCDKFLDDDLTDDIMCVKKILDKVGINYWLAHKALCSEKLDQWLCEKL
On to B1, for which, in assay [1], the “association with myelin levels” value is listed as “linked with higher myelin levels”, the “nutIntake*logAge estimate” value is listed as −0.014 and the nutIntake estimate is listed as 0.097.
